Tests used:
purified Tubulin = experiment: Fluorescence binding study, double reciprocal plot; settings: double reciprocal plot of fluorescence data, 1:1 binding, 30 °C, ± SEM; read-out: dissociation constant (Kd)
Experimental: Fluorescence spectral measurements were performed using Infinite M200 PRO microplate reader (Tecan Group Ltd., Switzerland). Briefly, SS28 (10 μM) was preincubated with increasing concentration of Tubulin (10, 25, 50, 100, 500 and 1000 nM) at 30 °C for 30 min. SS28 Tubulin complex was then scanned for the emission spectra from 345 to 545 nm at 315 nm excitation range. Resulting fluorescence intensity was plotted as the function of wavelength.
The dissociation constant (Kd) was determined using double reciprocal plot of change in fluorescence of SS28 (1/Δ(F0-F)) as a function of protein concentration by the method of Benesi and Hildebrand assuming a 1:1 binding of SS28 to Tubulin[48]. The spectral measurements were recorded three times and SEM was calculated.

CEM cells = experiment: Intracellular ROS production (H2DCFDA, flow cytometry); format: cell-based, Human; settings: 5 to 60 min
Experimental: Intracellular ROS generation in cells was assessed using the oxidation-sensitive fluorescent probe 2,7-dichlorodihydro fluorescein diacetate (H2DCFDA) as previously described. CEM cells were treated with SS28 (5 μM) for 5, 10, 15, 30 and 60 min, harvested, washed and incubated with H2DCFDA (30 min at 37 °C) and then fluorescence intensity was analyzed by flow cytometry. H2O2 was used as the positive control.

[1] = In vivo pharmacokinetics, HPLC of plasma; parameters: species or system BALB/c mice; settings: mice, intraperitoneal, 15 mg/kg
Experimental: Control and SS28 (15 mg/kg b.wt.) treated BALB/c mice were sacrificed and blood was collected at various time points (15, 30 min, 1 and 2 h; 2 each/time point) as described. Plasma (50 μl) was then extracted with acetonitrile, centrifuged (3,000 × g for 15 min) to remove precipitated proteins and the resulting supernatants were analyzed using HPLC (Waters, USA).
Standard solution of SS28 was prepared by dissolving increasing concentration (25 to 100 μM) of the compound in acetonitrile. Standard calibration curves were plotted using peak area against the concentration of the compound and the retention time of the compound was also determined. Plasma concentrations of the treated groups were extrapolated from standard curves constructed by linear regression in Graph-Pad Prism 4.0 software (GraphPad Software, Inc.).

Compound: COc1cc(/C=C/c2ccc(C)cc2)cc(OC)c1OC [SS28, (E)-1,2,3-trimethoxy-5-(4-methylstyryl)benzene]
- Kd (purified Tubulin): 414 ± 110 nM
- intracellular ROS production (CEM cells): did not show generation of ROS
- level of SS28 in the plasma ([1]; 15 min and 1 h post-treatment): detectable
- level of SS28 in the plasma ([1]; 30 min after the injection): significant increase
- level of SS28 in the plasma ([1]; after 1 h of treatment): significant decrease

Reference: paper PMC5066224, “A Novel Resveratrol Based Tubulin Inhibitor Induces Mitotic Arrest and Activates Apoptosis in Cancer Cells” (Scientific Reports, 2016)
